Measured values as given in patent US8192962B2, “Processes for detecting toxic substances” (Daikin Industries, Ltd., priority 2001, dated 2012).

System: Energy system protein genes
Experiment: DNA chip mRNA expression in yeast, energy system protein genes (Table 4)
Format: cell-based, Saccharomyces cerevisiae S288C
In short: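 Whole-genome yeast DNA chip hybridization (65° C., >12 h) of Cy-labeled cDNA from S288C cells exposed 2 h at 25° C. to a sub-lethal toxicant dose in YPD; value is intensity relative to chemical-free control.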

`CN(C)C(=S)SSC(=S)N(C)C` [(10), Tetramethylthiuram disulfide] was tested, and the “The level of expressed mRNA in the presence of chemical substance/The level of expressed mRNA in the absence of chemical substance” value (yeast gene YAL060W) was 2.5, the “The level of expressed mRNA in the presence of chemical substance/The level of expressed mRNA in the absence of chemical substance” value (yeast gene YBL058W, cells incubated two hours with the chemical substance) was 2.1 and the “The level of expressed mRNA in the presence of chemical substance/The level of expressed mRNA in the absence of chemical substance” value (yeast gene YBL099W, cells incubated two hours with the chemical substance) was 0.7. For the same molecule, the “The level of expressed mRNA in the presence of chemical substance/The level of expressed mRNA in the absence of chemical substance” value (yeast gene YBR001C, cells incubated two hours with the chemical substance) was 2.1, the “The level of expressed mRNA in the presence of chemical substance/The level of expressed mRNA in the absence of chemical substance” value (yeast gene YBR185C, cells incubated two hours with the chemical substance) was 1.6 and the “The level of expressed mRNA in the presence of chemical substance/The level of expressed mRNA in the absence of chemical substance” value (yeast gene YBR221C, cells incubated two hours with the chemical substance) was 1.3. The “The level of expressed mRNA in the presence of chemical substance/The level of expressed mRNA in the absence of chemical substance” value (yeast gene YCL040W) was 3.0, the “The level of expressed mRNA in the presence of chemical substance/The level of expressed mRNA in the absence of chemical substance” value (yeast gene YCR012W) was 1.5 and the “The level of expressed mRNA in the presence of chemical substance/The level of expressed mRNA in the absence of chemical substance” value (yeast gene YCR046C, cells incubated two hours with the chemical substance) was 1.4. The “The level of expressed mRNA in the presence of chemical substance/The level of expressed mRNA in the absence of chemical substance” value (yeast gene YCR105W, cells incubated two hours with the chemical substance) was 3.9, the “The level of expressed mRNA in the presence of chemical substance/The level of expressed mRNA in the absence of chemical substance” value (yeast gene YDL021W) was 7.4 and the “The level of expressed mRNA in the presence of chemical substance/The level of expressed mRNA in the absence of chemical substance” value (yeast gene YDL067C, cells incubated two hours with the chemical substance) was 0.9. The “The level of expressed mRNA in the presence of chemical substance/The level of expressed mRNA in the absence of chemical substance” value (yeast gene YDL078C, cells incubated two hours with the chemical substance) was 1.0, the “The level of expressed mRNA in the presence of chemical substance/The level of expressed mRNA in the absence of chemical substance” value (yeast gene YDL107W, cells incubated two hours with the chemical substance) was 1.8 and the “The level of expressed mRNA in the presence of chemical substance/The level of expressed mRNA in the absence of chemical substance” value (yeast gene YDL174C) was 1.7. For the same molecule, the “The level of expressed mRNA in the presence of chemical substance/The level of expressed mRNA in the absence of chemical substance” value (yeast gene YDL181W, cells incubated two hours with the chemical substance) was 0.8, the “The level of expressed mRNA in the presence of chemical substance/The level of expressed mRNA in the absence of chemical substance” value (yeast gene YDR001C) was 3.0 and the “The level of expressed mRNA in the presence of chemical substance/The level of expressed mRNA in the absence of chemical substance” value (yeast gene YDR050C, cells incubated two hours with the chemical substance) was 1.3. The “The level of expressed mRNA in the presence of chemical substance/The level of expressed mRNA in the absence of chemical substance” value (yeast gene YDR079W, cells incubated two hours with the chemical substance) was 0.8, the “The level of expressed mRNA in the presence of chemical substance/The level of expressed mRNA in the absence of chemical substance” value (yeast gene YDR178W, cells incubated two hours with the chemical substance) was 0.8 and the “The level of expressed mRNA in the presence of chemical substance/The level of expressed mRNA in the absence of chemical substance” value (yeast gene YDR231C) was 1.4. For the same molecule, the “The level of expressed mRNA in the presence of chemical substance/The level of expressed mRNA in the absence of chemical substance” value (yeast gene YDR298C, cells incubated two hours with the chemical substance) was 1.6, the “The level of expressed mRNA in the presence of chemical substance/The level of expressed mRNA in the absence of chemical substance” value (yeast gene YDR377W, cells incubated two hours with the chemical substance) was 0.9 and the “The level of expressed mRNA in the presence of chemical substance/The level of expressed mRNA in the absence of chemical substance” value (yeast gene YDR529C, cells incubated two hours with the chemical substance) was 0.6. For the same molecule, the “The level of expressed mRNA in the presence of chemical substance/The level of expressed mRNA in the absence of chemical substance” value (yeast gene YEL024W, cells incubated two hours with the chemical substance) was 0.6, the “The level of expressed mRNA in the presence of chemical substance/The level of expressed mRNA in the absence of chemical substance” value (yeast gene YEL039C, cells incubated two hours with the chemical substance) was 1.2 and the “The level of expressed mRNA in the presence of chemical substance/The level of expressed mRNA in the absence of chemical substance” value (yeast gene YER178W) was 1.3. The “The level of expressed mRNA in the presence of chemical substance/The level of expressed mRNA in the absence of chemical substance” value (yeast gene YFL057C) was 46.1, the “The level of expressed mRNA in the presence of chemical substance/The level of expressed mRNA in the absence of chemical substance” value (yeast gene YFR053C) was 1.1 and the “The level of expressed mRNA in the presence of chemical substance/The level of expressed mRNA in the absence of chemical substance” value (yeast gene YGL018C, cells incubated two hours with the chemical substance) was 1.4. For the same molecule, the “The level of expressed mRNA in the presence of chemical substance/The level of expressed mRNA in the absence of chemical substance” value (yeast gene YGL062W) was 2.5, the “The level of expressed mRNA in the presence of chemical substance/The level of expressed mRNA in the absence of chemical substance” value (yeast gene YGL187C, cells incubated two hours with the chemical substance) was 0.6 and the “The level of expressed mRNA in the presence of chemical substance/The level of expressed mRNA in the absence of chemical substance” value (yeast gene YGL191W, cells incubated two hours with the chemical substance) was 1.3. The “The level of expressed mRNA in the presence of chemical substance/The level of expressed mRNA in the absence of chemical substance” value (yeast gene YGL205W, cells incubated two hours with the chemical substance) was 0.6, the “The level of expressed mRNA in the presence of chemical substance/The level of expressed mRNA in the absence of chemical substance” value (yeast gene YGL256W, cells incubated two hours with the chemical substance) was 1.2 and the “The level of expressed mRNA in the presence of chemical substance/The level of expressed mRNA in the absence of chemical substance” value (yeast gene YGR008C) was 2.4. The “The level of expressed mRNA in the presence of chemical substance/The level of expressed mRNA in the absence of chemical substance” value (yeast gene YGR043C) was 8.4, the “The level of expressed mRNA in the presence of chemical substance/The level of expressed mRNA in the absence of chemical substance” value (yeast gene YGR062C, cells incubated two hours with the chemical substance, 25° C., YPD medium) was 1.4 and the “The level of expressed mRNA in the presence of chemical substance/The level of expressed mRNA in the absence of chemical substance” value (yeast gene YGR087C, cells incubated two hours with the chemical substance) was 0.9. For the same molecule, the “The level of expressed mRNA in the presence of chemical substance/The level of expressed mRNA in the absence of chemical substance” value (yeast gene YGR174C, cells incubated two hours with the chemical substance) was 0.7, the “The level of expressed mRNA in the presence of chemical substance/The level of expressed mRNA in the absence of chemical substance” value (yeast gene YGR192C) was 1.3 and the “The level of expressed mRNA in the presence of chemical substance/The level of expressed mRNA in the absence of chemical substance” value (yeast gene YGR207C) was 2.6. For the same molecule, the “The level of expressed mRNA in the presence of chemical substance/The level of expressed mRNA in the absence of chemical substance” value (yeast gene YGR244C) was 1.1, the “The level of expressed mRNA in the presence of chemical substance/The level of expressed mRNA in the absence of chemical substance” value (yeast gene YGR254W) was 1.2 and the “The level of expressed mRNA in the presence of chemical substance/The level of expressed mRNA in the absence of chemical substance” value (yeast gene YGR256W) was 2.5. The “The level of expressed mRNA in the presence of chemical substance/The level of expressed mRNA in the absence of chemical substance” value (yeast gene YHL008C) was 1.7, the “The level of expressed mRNA in the presence of chemical substance/The level of expressed mRNA in the absence of chemical substance” value (yeast gene YHR179W) was 5.8 and the “The level of expressed mRNA in the presence of chemical substance/The level of expressed mRNA in the absence of chemical substance” value (yeast gene YIL160C) was 3.8. For the same molecule, the “The level of expressed mRNA in the presence of chemical substance/The level of expressed mRNA in the absence of chemical substance” value (yeast gene YIL172C) was 7.1, the “The level of expressed mRNA in the presence of chemical substance/The level of expressed mRNA in the absence of chemical substance” value (yeast gene YIR031C, cells incubated two hours with the chemical substance) was 1.0 and the “The level of expressed mRNA in the presence of chemical substance/The level of expressed mRNA in the absence of chemical substance” value (yeast gene YJL052W) was 2.0. For the same molecule, the “The level of expressed mRNA in the presence of chemical substance/The level of expressed mRNA in the absence of chemical substance” value (yeast gene YJL121C, cells incubated two hours with the chemical substance) was 0.4 and the “The level of expressed mRNA in the presence of chemical substance/The level of expressed mRNA in the absence of chemical substance” value (yeast gene YJL166W, cells incubated two hours with the chemical substance) was 1.2.
